Results taken from paper PMC11101759, “Inhibitors of dermatan sulfate epimerase 1 decreased accumulation of glycosaminoglycans in mucopolysaccharidosis type I fibroblasts” (Glycobiology, 2024).

Tests used:
[1] = target: T1, DS-epi1 (truncated form, amino acid 23–775-HIS) (Homo sapiens, UniProt Q9UL01); experiment: DS-epi1 epimerase activity assay; format: biochemical
T1 construct: gene DSE; truncated, residues 23-775, HIS tag

[2] = target: T2, HSepi; heparan sulfate glucuronyl C-5 epimerase (GLCE) (Homo sapiens, UniProt O94923); experiment: HSepi epimerase activity assay, lysate of transfected […]HEK; format: biochemical; settings: read-out: % inhibition at 1,000 μM
T2 sequence (O94923 29-617): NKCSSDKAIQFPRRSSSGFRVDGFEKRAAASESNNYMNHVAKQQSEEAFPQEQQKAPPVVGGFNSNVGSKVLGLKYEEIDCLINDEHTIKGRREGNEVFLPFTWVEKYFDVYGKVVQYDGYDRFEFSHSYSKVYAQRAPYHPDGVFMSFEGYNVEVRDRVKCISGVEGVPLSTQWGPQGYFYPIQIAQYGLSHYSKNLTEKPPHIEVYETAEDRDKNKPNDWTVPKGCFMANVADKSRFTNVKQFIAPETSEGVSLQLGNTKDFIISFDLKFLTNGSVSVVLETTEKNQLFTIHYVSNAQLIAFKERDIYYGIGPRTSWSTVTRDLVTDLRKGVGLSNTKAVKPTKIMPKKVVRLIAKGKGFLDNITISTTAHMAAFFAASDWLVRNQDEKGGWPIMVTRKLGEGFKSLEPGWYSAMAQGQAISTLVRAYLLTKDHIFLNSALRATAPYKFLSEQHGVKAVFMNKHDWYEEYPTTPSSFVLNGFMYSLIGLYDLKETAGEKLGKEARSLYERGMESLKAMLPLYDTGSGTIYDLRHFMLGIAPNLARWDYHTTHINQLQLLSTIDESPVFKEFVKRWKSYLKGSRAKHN

Row | IC50 [1] [µM] | inhibition at 1000 µM [2] [%] | SMILES
1 | 16 | 47 | CCCN(C)c1cc(-c2ccccc2)nc(SCc2cccc(C(=O)O)c2)n1 [compound 11, inhibitor 11]
2 | 12 | 69 | CN(c1cc(-c2ccccc2)nc(SCc2ccc(C(=O)O)o2)n1)C1CCCCC1 [compound 3, inhibitor 3]
